Data taken from US9926298B2, “Heterocyclic compounds and use thereof” (National Health Research Institutes, priority 2014, dated 2018).

How the values were obtained:
Ischemic Stroke in Rats = test: Ischemic stroke in rats (MCAo); type: in vivo, male Sprague-Dawley rats; settings: 1 mg/kg/d i.p. for 5 days; for horizontal movement number compared with vehicle-treated animals / vertical movement number: day 2 after MCAo; for volume of infarction as compared to vehicle (TTC staining): day 5 after MCAo
Experimental: Adult male Sprague-Dawley rats (250-300 g) were anesthetized with chloral hydrate (400 mg/kg i.p.). The right middle cerebral artery was occluded (MCAo) and bilateral common carotids (CCAs) were clamped for 60 minutes to generate focal ischemia in the right cerebral cortex. Core body temperature was maintained at 37° C.
Compounds 62 and 63 and a vehicle were administered to the rats at a dose of 1 mg/kg/d (i.p.) for 5 consecutive days. The first dose was given at 90 minutes after MCAo. Each animal was placed in a 42×42×31 cm activity monitor for 1 h on day 2 after MCAo. The monitor contained 16 horizontal and 8 vertical infrared sensors spaced 2.5 cm apart. Locomotor activity was calculated using the number of infrared beams broken by the animals.
TTC staining was performed on day 5 after MCAo to determine infarction size as described previously in Brain Research, volume 1116, issue 1, 2006, pages 159-165. Briefly, rats were decapitated and the brains were removed and sliced into 2.0-mm-thick sections. The brain slices were incubated in a 2% TTC solution (Sigma-Aldrich) for 15 minutes at room temperature and then transferred into a 4% paraformaldehyde solution for fixation. The area of infarction in each slice was measured with a digital scanner and Imagetools programs (University of Texas Health Sciences Center). The volume of infarction in each animal was obtained from the product of average slice thickness (2 mm) and sum of infarction areas in all brain slices examined.

Limb Ischemia in Mice = test: Limb ischemia in mice; type: in vivo, ICR mice; settings: 6 mg/kg/d subcutaneous, twice a week, laser Doppler perfusion, seven weeks
Experimental: Unilateral hindlimb ischemia was induced in ICR mice by ligating and excising the right femoral artery. Briefly, animals were anesthetized by an intraperitoneal injection of Xylocaine (2 mg/kg of body weight) plus Zoletil (i.e., the dissociative anesthetic Tiletamine/Zolazepam at a ratio of 1:1; 5 mg/kg of body weight). The proximal and distal portions of the femoral artery were ligated with a silk thread, and a 0.2 centimeter section of the blood vessel was removed. Hindlimb blood perfusion was measured with a laser Doppler perfusion imager system (Moor Instruments Limited, Devon, UK) before and after the surgery and was then followed on a weekly basis. Animals were subcutaneously treated with compound 4 (6 mg/kg/d, twice a week) in saline after surgery. The animals were sacrificed by cervical dislocation without sedation at the end of the seven experimental weeks. To avoid the influence of ambient light and temperature, the results are expressed as the ratio of perfusion in the right (ischemic) versus left (non-ischemic) limb.

Row | Structure (SMILES) | horizontal movement number compared with vehicle-treated animals (Ischemic Stroke in Rats) | vertical movement number (Ischemic Stroke in Rats) | volume of infarction as compared to vehicle (TTC staining) (Ischemic Stroke in Rats) | improvement of blood flow in the ischemic hindlimb as compared with the vehicle control (Limb Ischemia in Mice)
1 | N[C@@H](CCC(=O)N1CCC(Nc2nc(NCc3cn(CCCNCCCNC4CCCCC4)nn3)nc3ccccc23)CC1)C(=O)OCc1ccccc1 [Compound 62] | significant increase | significantly increased | significantly reduced | 
2 | N[C@@H](CCC(=O)N1CCC(Nc2nc(NCc3cn(CCCNCCCNC4CCCCC4)nn3)nc3ccccc23)CC1)C(=O)O [Compound 63] | significant increase | significantly increased | significantly reduced | 
3 | c1ccc2c(NC3CCNCC3)nc(NCc3cn(CCCNCCCNC4CCCCC4)nn3)nc2c1 [Compound 4] |  |  |  | 20-25%
